Assay results: ChEMBL document CHEMBL6127052, “Discovery of membrane-targeting amphiphilic honokiol derivatives containing an oxazolethione moiety to combat methicillin-resistant Staphylococcus aureus (MRSA) infections” (Eur J Med Chem, 2024)
In brackets after ≈: the same amount, converted by molar mass. Activity calls are given as the source filed them. No cut-off for these calls is given here.

What was measured:
Staphylococcus aureus [1] = test: Induction of resistance development in Staphylococcus aureus ATCC 29213 assessed as increase in MIC at 0.5 times MIC treated for 4 days of consecutive passages; assay type: functional, organism-based; details: time 4.0 day
Staphylococcus aureus [2] = test: Induction of resistance development in Staphylococcus aureus ATCC 29213 assessed as fold increase in MIC at 0.5 times MIC treated for 18 days of consecutive passages; assay type: functional; details: time 18 day
Staphylococcus aureus [3] = test: Antibacterial activity against methicillin-resistant Staphylococcus aureus clinical isolate M12 infected in KM mouse assessed as decrease in erythematous pustules at infected skin on back of animal at 5 mg/kg, sc measured after 24 hrs; assay type: functional, organism-based
Staphylococcus aureus [4] = test: Antibacterial activity against methicillin-resistant Staphylococcus aureus clinical isolate M12 infected in KM mouse assessed as decrease in erythematous pustules in intradermal tissues at 5 mg/kg, sc measured after 24 hrs; assay type: functional, organism-based
Staphylococcus aureus [5] = test: Antibacterial activity against methicillin-resistant Staphylococcus aureus clinical isolate M12 infected in KM mouse assessed as decrease in bacterial load in skin tissues at 5 mg/kg, sc measured after 24 hrs by drop-plate counting method (reference value: 6.7); assay type: functional
Staphylococcus aureus [6] = test: Antibacterial activity against methicillin-resistant Staphylococcus aureus clinical isolate M12 infected in KM mouse assessed as decrease in bacterial survival rate at 5 mg/kg, sc measured after 24 hrs by drop-plate counting method relative to control; assay type: functional
Staphylococcus aureus [7] = test: Antibacterial activity against methicillin-resistant Staphylococcus aureus clinical isolate M12 infected in KM mouse assessed as reduction in TNF-alpha level at infection site at 5 mg/kg, sc measured after 24 hrs by ELISA; assay type: functional
Staphylococcus aureus [8] = test: Antibacterial activity against methicillin-resistant Staphylococcus aureus clinical isolate M12 infected in KM mouse assessed as reduction in IL-6 level at infection site at 5 mg/kg, sc measured after 24 hrs by ELISA; assay type: functional
[9] = Toxicity in KM mouse infected with methicillin-resistant Staphylococcus aureus clinical isolate M12 assessed as damage in heart at 5 mg/kg, sc measured after 24 hrs by H and E staining based analysis; assay type: organism-based; details: in vivo
[10] = Toxicity in KM mouse infected with methicillin-resistant Staphylococcus aureus clinical isolate M12 assessed as damage in lung at 5 mg/kg, sc measured after 24 hrs by H and E staining based analysis; assay type: organism-based; details: in vivo
[11] = Toxicity in KM mouse infected with methicillin-resistant Staphylococcus aureus clinical isolate M12 assessed as damage in liver at 5 mg/kg, sc measured after 24 hrs by H and E staining based analysis; assay type: organism-based; details: in vivo
[12] = Toxicity in KM mouse infected with methicillin-resistant Staphylococcus aureus clinical isolate M12 assessed as damage in spleen at 5 mg/kg, sc measured after 24 hrs by H and E staining based analysis; assay type: organism-based; details: in vivo
[13] = Toxicity in KM mouse infected with methicillin-resistant Staphylococcus aureus clinical isolate M12 assessed as damage in kidney at 5 mg/kg, sc measured after 24 hrs by H and E staining based analysis; assay type: organism-based; details: in vivo
[14] = Toxicity in KM mouse infected with methicillin-resistant Staphylococcus aureus clinical isolate M12 assessed as histopathological abnormality in heart at 5 mg/kg, sc measured after 24 hrs by H and E staining based analysis; assay type: organism-based; details: in vivo
[15] = Toxicity in KM mouse infected with methicillin-resistant Staphylococcus aureus clinical isolate M12 assessed as histopathological abnormality in lung at 5 mg/kg, sc measured after 24 hrs by H and E staining based analysis; assay type: organism-based; details: in vivo
[16] = Toxicity in KM mouse infected with methicillin-resistant Staphylococcus aureus clinical isolate M12 assessed as histopathological abnormality in liver at 5 mg/kg, sc measured after 24 hrs by H and E staining based analysis; assay type: organism-based; details: in vivo
[17] = Toxicity in KM mouse infected with methicillin-resistant Staphylococcus aureus clinical isolate M12 assessed as histopathological abnormality in spleen at 5 mg/kg, sc measured after 24 hrs by H and E staining based analysis; assay type: organism-based; details: in vivo
[18] = Toxicity in KM mouse infected with methicillin-resistant Staphylococcus aureus clinical isolate M12 assessed as histopathological abnormality in kidney at 5 mg/kg, sc measured after 24 hrs by H and E staining based analysis; assay type: organism-based; details: in vivo
Staphylococcus aureus [19] = test: Antibacterial activity against methicillin-resistant Staphylococcus aureus clinical isolate M12 infected in sepsis BALB/c mouse model assessed as decrease in bacterial load in liver at 12 mg/kg, ip administered consecutively at 12 hr-interval for 24 hrs measured after 24 hrs post-last dose; assay type: functional; details: time 48 hrs
Staphylococcus aureus [20] = test: Antibacterial activity against methicillin-resistant Staphylococcus aureus clinical isolate M12 infected in sepsis BALB/c mouse model assessed as decrease in bacterial load in kidney at 12 mg/kg, ip administered consecutively at 12 hr-interval for 24 hrs measured after 24 hrs post-last dose; assay type: functional; details: time 48 hrs
Staphylococcus aureus [21] = test: Antibacterial activity against methicillin-resistant Staphylococcus aureus clinical isolate M12 infected in sepsis BALB/c mouse model assessed as decrease in bacterial load in spleen at 12 mg/kg, ip administered consecutively at 12 hr-interval for 24 hrs measured after 24 hrs post-last dose; assay type: functional; details: time 48 hrs
[22] = Toxicity in sepsis BALB/c mouse model infected with methicillin-resistant Staphylococcus aureus clinical isolate M12 assessed as survival rate at 12 mg/kg, ip administered consecutively at 12 hr-interval for 7 days measured after 24 hrs post-last dose; assay type: organism-based; details: in vivo, 192 h, time 8 day
Staphylococcus aureus [23] = test: Antibacterial activity against methicillin-resistant Staphylococcus aureus clinical isolate M12 infected in sepsis BALB/c mouse model assessed as decrease in necrosis in hepatocytes at 12 mg/kg, ip administered consecutively at 12 hr-interval for 24 hrs measured after 24 hrs post-last dose by H and E staining based analysis; assay type: functional, organism-based; details: time 48.0 hrs
Staphylococcus aureus [24] = test: Antibacterial activity against methicillin-resistant Staphylococcus aureus clinical isolate M12 infected in sepsis BALB/c mouse model assessed as decrease in degeneration of hepatocytes at 12 mg/kg, ip administered consecutively at 12 hr-interval for 24 hrs measured after 24 hrs post-last dose by H and E staining based analysis; assay type: functional, organism-based; details: time 48.0 hrs
Staphylococcus aureus [25] = test: Antibacterial activity against methicillin-resistant Staphylococcus aureus clinical isolate M12 infected in sepsis BALB/c mouse model assessed as decrease in pathological change in red medulla of spleen at 12 mg/kg, ip administered consecutively at 12 hr-interval for 24 hrs measured after 24 hrs post-last dose by H and E staining based analysis; assay type: functional, organism-based; details: time 48.0 hrs
Staphylococcus aureus [26] = test: Antibacterial activity against methicillin-resistant Staphylococcus aureus clinical isolate M12 infected in sepsis BALB/c mouse model assessed as decrease in pathological change in white medulla of spleen at 12 mg/kg, ip administered consecutively at 12 hr-interval for 24 hrs measured after 24 hrs post-last dose by H and E staining based analysis; assay type: functional, organism-based; details: time 48.0 hrs
Staphylococcus aureus [27] = test: Antibacterial activity against methicillin-resistant Staphylococcus aureus clinical isolate M12 infected in sepsis BALB/c mouse model assessed as decrease in degeneration of renal tubular epithelial cells at 12 mg/kg, ip administered consecutively at 12 hr-interval for 24 hrs measured after 24 hrs post-last dose by H and E staining based analysis; assay type: functional, organism-based; details: time 48.0 hrs
Staphylococcus aureus [28] = test: Antibacterial activity against methicillin-resistant Staphylococcus aureus clinical isolate M12 infected in sepsis BALB/c mouse model assessed as decrease in necrosis in renal tubular epithelial cells at 12 mg/kg, ip administered consecutively at 12 hr-interval for 24 hrs measured after 24 hrs post-last dose by H and E staining based analysis; assay type: functional, organism-based; details: time 48.0 hrs
Staphylococcus aureus [29] = test: Antibacterial activity against Staphylococcus aureus ATCC 29213 by CLSI based micro-broth dilution method; assay type: functional
Staphylococcus aureus [30] = test: Antibacterial activity against methicillin-resistant Staphylococcus aureus N315 by CLSI based micro-broth dilution method; assay type: functional
Staphylococcus aureus [31] = test: Antibacterial activity against methicillin-resistant Staphylococcus aureus clinical isolate M11 by CLSI based micro-broth dilution method; assay type: functional
Staphylococcus aureus [32] = test: Antibacterial activity against methicillin-resistant Staphylococcus aureus clinical isolate M12 by CLSI based micro-broth dilution method; assay type: functional
Staphylococcus aureus [33] = test: Antibacterial activity against methicillin-resistant Staphylococcus aureus clinical isolate M13 by CLSI based micro-broth dilution method; assay type: functional
Staphylococcus aureus [34] = test: Antibacterial activity against methicillin-resistant Staphylococcus aureus clinical isolate M14 by CLSI based micro-broth dilution method; assay type: functional
Staphylococcus aureus [35] = test: Antibacterial activity against methicillin-resistant Staphylococcus aureus clinical isolate M16 by CLSI based micro-broth dilution method; assay type: functional
Staphylococcus aureus [36] = test: Antibacterial activity against methicillin-resistant Staphylococcus aureus clinical isolate M17 by CLSI based micro-broth dilution method; assay type: functional
Staphylococcus aureus [37] = test: Antibacterial activity against methicillin-resistant Staphylococcus aureus clinical isolate M20 by CLSI based micro-broth dilution method; assay type: functional
Staphylococcus aureus [38] = test: Antibacterial activity against methicillin-resistant Staphylococcus aureus clinical isolate M21 by CLSI based micro-broth dilution method; assay type: functional
Staphylococcus aureus [39] = test: Antibacterial activity against methicillin-resistant Staphylococcus aureus clinical isolate M22 by CLSI based micro-broth dilution method; assay type: functional
Staphylococcus aureus [40] = test: Antibacterial activity against methicillin-resistant Staphylococcus aureus clinical isolate M23 by CLSI based micro-broth dilution method; assay type: functional
Escherichia coli = test: Antibacterial activity against Escherichia coli ATCC 25922 by CLSI based micro-broth dilution method; assay type: functional
[41] = Hemolytic activity in sheep erythrocytes incubated for 1 hr by absorbance based assay; assay type: toxicity, cell-based, Ovis aries, Erythrocyte
[42] = Selectivity index, ratio of HC50 for hemolytic activity in sheep erythrocytes to MIC for antibacterial activity against Staphylococcus aureus ATCC 29213; assay type: toxicity, cell-based, RBC

Structure (SMILES): CCn1cc(C(=O)O)c(=O)c2cc(F)c(N3CCNCC3)cc21 [NORFLOXACIN]
- Activity (Staphylococcus aureus [1]): Active
- fold change (FC) (Staphylococcus aureus [2]): 128

Structure (SMILES): CN[C@H](CC(C)C)C(=O)N[C@H]1C(=O)N[C@@H](CC(N)=O)C(=O)N[C@H]2C(=O)N[C@H]3C(=O)N[C@H](C(=O)N[C@H](C(=O)O)c4cc(O)cc(O)c4-c4cc3ccc4O)[C@H](O)c3ccc(c(Cl)c3)Oc3cc2cc(c3O[C@@H]2O[C@H](CO)[C@@H](O)[C@H](O)[C@H]2O[C@H]2C[C@](C)(N)[C@H](O)[C@H](C)O2)Oc2ccc(cc2Cl)[C@H]1O [VANCOMYCIN]
- Activity (Staphylococcus aureus [3]): inactive
- Activity (Staphylococcus aureus [4]): inactive
- Activity (Staphylococcus aureus [5]): 1.4 log10CFU/g
- Activity (Staphylococcus aureus [6]): 93.33%
- Activity (Staphylococcus aureus [7]): 96.3 pg/mL
- Activity (Staphylococcus aureus [8]): 56.5 pg/mL
- Activity [9]: Non-Toxic
- Activity [10]: Non-Toxic
- Activity [11]: Non-Toxic
- Activity [12]: Non-Toxic
- Activity [13]: Non-Toxic
- Activity [14]: Non-Toxic
- Activity [15]: Non-Toxic
- Activity [16]: Non-Toxic
- Activity [17]: Non-Toxic
- Activity [18]: Non-Toxic
- Activity (Staphylococcus aureus [19]): 1.62 log10CFU/g
- Activity (Staphylococcus aureus [20]): 1.48 log10CFU/g
- Activity (Staphylococcus aureus [21]): 1.57 log10CFU/g
- Survival [22]: 50%
- Activity (Staphylococcus aureus [23]): Active
- Activity (Staphylococcus aureus [24]): Active
- Activity (Staphylococcus aureus [25]): Active
- Activity (Staphylococcus aureus [26]): Active
- Activity (Staphylococcus aureus [27]): Active
- Activity (Staphylococcus aureus [28]): Active

Structure (SMILES): C=CCc1cc(-c2ccc(OCCC[N+](C)(C)CC(=O)NCCCC)c(CC=C)c2)c2oc(=S)n(Cc3ccc(F)c(Cl)c3)c2c1.[Br-]
- MIC (Staphylococcus aureus [29]): 128 µg/mL
- MIC (Staphylococcus aureus [30]): 64 µg/mL
- MIC (Staphylococcus aureus [31]): 16 µg/mL
- MIC (Staphylococcus aureus [32]): 8 µg/mL
- MIC (Staphylococcus aureus [33]): 16 µg/mL
- MIC (Staphylococcus aureus [34]): 32 µg/mL
- MIC (Staphylococcus aureus [35]): 16 µg/mL
- MIC (Staphylococcus aureus [36]): 16 µg/mL
- MIC (Staphylococcus aureus [37]): 16 µg/mL
- MIC (Staphylococcus aureus [38]): 8 µg/mL
- MIC (Staphylococcus aureus [39]): 32 µg/mL
- MIC (Staphylococcus aureus [40]): 32 µg/mL
- MIC (Escherichia coli): > 128 µg/mL
- HC50 at 1 h [41]: > 160 µg/mL
- selectivity ratio [42]: > 1.25

Structure (SMILES): C=CCc1ccc(O)c(-c2ccc(O)c(CC=C)c2)c1 [HONOKIOL]
- MIC (Staphylococcus aureus [29]): 32 µg/mL (≈ 120 µM)
- MIC (Staphylococcus aureus [30]): 8 µg/mL (≈ 30 µM)
- MIC (Staphylococcus aureus [31]): 16 µg/mL (≈ 60.1 µM)
- MIC (Staphylococcus aureus [32]): 8 µg/mL (≈ 30 µM)
- MIC (Staphylococcus aureus [33]): 16 µg/mL (≈ 60.1 µM)
- MIC (Staphylococcus aureus [34]): 16 µg/mL (≈ 60.1 µM)
- MIC (Staphylococcus aureus [35]): 16 µg/mL (≈ 60.1 µM)
- MIC (Staphylococcus aureus [36]): 16 µg/mL (≈ 60.1 µM)
- MIC (Staphylococcus aureus [37]): 8 µg/mL (≈ 30 µM)
- MIC (Staphylococcus aureus [38]): 16 µg/mL (≈ 60.1 µM)
- MIC (Staphylococcus aureus [39]): 16 µg/mL (≈ 60.1 µM)
- MIC (Staphylococcus aureus [40]): 16 µg/mL (≈ 60.1 µM)
- MIC (Escherichia coli): > 128 µg/mL
- HC50 at 1 h [41]: > 80 µg/mL
- selectivity ratio [42]: > 2.5
